11 compounds from US11364189B2, “Method for the treatment of keratin materials using amide C-glycoside derivatives, and cosmetic composition containing same” (L'OREAL, priority 2016, dated 2022) can be followed below.

The structures appear in SMILES notation.

One assay concerns normal human melanocytes. The assay is described as follows: Depigmenting activity (reduction of melanin production) in normal human melanocytes in vitro. The format is cell-based. The note with it: 200 μM (max dose tested).
For the compound `CCOC(=O)CNC(=O)C(OC(C)=O)C1OC[C@@H](OC(C)=O)[C@H](OC(C)=O)[C@H]1O` (stereo partly shown) [Compound 19], the “% depigmentation at the max dose tested 200 μM (run 2)” value worked out at 43%.
Regarding `CCOC(=O)[C@@H](CO)NC(=O)C(O)[C@@H]1OC[C@@H](O)[C@H](O)C1O` (stereo partly shown) [Compound 12], the “% depigmentation at the max dose tested 200 μM (run 2)” value amounted to 28%.

The subject of a further assay is normal human melanocytes. The description is as above. Type of assay: cell-based. The note with it: run 1, 72 hours incubation, optical density (melanin). The procedure: The measurement of the depigmenting activity (reduction of melanin production) of compounds of formula (I) was performed by assaying normal human melanocytes in vitro as follows.
First, normal human melanocytes are cultured and distributed in wells. After 24 hours, the culture medium was replaced with a medium containing the compounds of formula (I) to be evaluated. The cells were incubated for 72 hours before measuring the final optical density, which measures the amount of melanin produced by the melanocytes. The compounds are tested at 100 μM after calibration.
Various test runs were performed and the results are collated in the following table.
For `NC(=O)[C@@H](CO)NC(=O)C(O)[C@@H]1OC[C@@H](O)[C@H](O)C1O` (single isomer, unassigned) [Compound 11-dia1], the “% Depigmentation at 100 μM (run 1)” value came out at 28%.
Regarding `O=C(O)c1ccc(NC(=O)C(O)C2O[C@H](CO)[C@@H](O)[C@H](O)[C@H]2O)cc1O` (stereo partly shown) [Compound 1], the “% Depigmentation at 100 μM (run 1)” value amounted to 13%.
Consider `NC(=O)CNC(=O)C(O)[C@@H]1OC[C@@H](O)[C@H](O)C1O` (stereo partly shown) [Compound 10], for which the “% Depigmentation at 100 μM (run 1)” value was found to be 20%.
Same read-out and setting: with `NC(=O)C1CCCN1C(=O)C(O)[C@@H]1O[C@H](CO)[C@@H](O)C(O)C1O` (stereo partly shown) [Compound 6] the figure was 29%.
Still for that read-out and setting: in the case of `NC(=O)CNC(=O)C(O)[C@@H]1O[C@H](CO)[C@@H](O)[C@H](O)C1O` (stereo partly shown) [Compound 4] it was 19%; in that of `NC(=O)CCNC(=O)C(O)[C@@H]1O[C@H](CO)[C@@H](O)[C@H](O)C1O` (stereo partly shown) [Compound 7], 34%.
On the same count and under the same terms, with `NC(=O)[C@@H](CO)NC(=O)C(O)[C@@H]1O[C@H](CO)[C@@H](O)[C@H](O)C1O` (stereo partly shown) [Compound 5] the figure was 31%.

Staying with this assay, now noted: run 2, 72 hours incubation, optical density (melanin).
On to `CCOC(=O)CNC(=O)C(OC(C)=O)C1OC[C@@H](OC(C)=O)[C@H](OC(C)=O)[C@H]1O` (stereo partly shown) [Compound 19], for which the “% depigmentation at 100 μM (run 2)” value was determined as 15%.
On the same count and under the same terms, with `CCOC(=O)[C@@H](CO)NC(=O)C(OC(C)=O)C1OC[C@@H](OC(C)=O)[C@H](OC(C)=O)[C@H]1O` (single isomer, unassigned) [Compound 20-dia1] the figure was 23%; with `NC(=O)[C@@H](CO)NC(=O)C(O)[C@@H]1OC[C@@H](O)[C@H](O)C1O` (single isomer, unassigned) [Compound 11-dia2], 32%; with `CCOC(=O)[C@@H](CO)NC(=O)C(O)[C@@H]1OC[C@@H](O)[C@H](O)C1O` (stereo partly shown) [Compound 12], 20%.
